Test results reported in BindingDB's records for doi:10.1021/jm970140s (Merck Research Laboratories, 1997).

Target: Vitamin K-dependent protein C (Homo sapiens) (UniProt P04070)
Experiment: Inhibitory activity against human serine protease (act protein C )(7.5*10e6*)

Vitamin K-dependent protein C (Homo sapiens), sequence (P04070 whole entry, looked up): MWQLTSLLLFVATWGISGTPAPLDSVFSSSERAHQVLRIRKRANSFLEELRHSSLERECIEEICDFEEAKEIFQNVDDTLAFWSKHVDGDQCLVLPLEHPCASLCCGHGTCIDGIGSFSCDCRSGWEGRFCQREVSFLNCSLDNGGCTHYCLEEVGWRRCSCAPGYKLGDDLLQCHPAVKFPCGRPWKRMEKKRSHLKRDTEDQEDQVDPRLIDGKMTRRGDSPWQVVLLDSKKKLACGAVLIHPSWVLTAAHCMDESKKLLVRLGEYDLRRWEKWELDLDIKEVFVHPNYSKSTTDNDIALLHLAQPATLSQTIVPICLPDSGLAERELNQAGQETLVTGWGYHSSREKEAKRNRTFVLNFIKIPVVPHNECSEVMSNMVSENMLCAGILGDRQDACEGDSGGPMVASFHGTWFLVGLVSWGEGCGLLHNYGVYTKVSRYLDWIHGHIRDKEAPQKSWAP

- Ki: 417 µM
SMILES: NC1CCC(CNC(=O)[C@@H]2CCCN2C(=O)[C@H](N)C(C2CCCCC2)C2CCCCC2)CC1 (stereo partly specified) [1-(2-Amino-3,3-dicyclohexyl-propionyl)-pyrrolidine-2-carboxylic acid (4-amino-cyclohexylmethyl)-amide]
